Values quoted from earlier work, collected in article PMC9762682, “Tocotrienols: Exciting Biological and Pharmacological Properties of Tocotrienols and Naturally Occurring Compounds, Part II” (Annals of clinical case reports, 2022).
Like-named read-outs stand apart in the source and are kept apart here. One block for each compound: values may come before it.

Key:
[1] = tested on: Breast cancer cells; parameters: method as in PMID 29606130; value at effective dose: unit not given here;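 as to IC50: anti-proliferation of cancer cells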
[2] = tested on: Melanoma cells; parameters: method as in PMID 29606130
[3] = tested on: Prostate cancer cells; parameters: method as in PMID 29606130; value at effective dose: scale not given here; conditions: for effective dose / percentage of control at effective dose / value at effective dose: 48 h;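 as to IC50: anti-proliferation of cancer cells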
[4] = tested on: Pancreas cancer cells; parameters: method as in PMID 29606130; value at effective dose: unit not given here; conditions: for effective dose / percentage of control at effective dose / value at effective dose: 48 h
[5] = tested on: Hela cells; parameters: method as in PMID 29606130; value at effective dose: unit not given here; conditions: for effective dose / percentage of control at effective dose / value at effective dose: 48 h;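 as to IC50: anti-proliferation of cancer cells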
[6] = tested on: B-Lymphocyte cells; parameters: method as in PMID 29606130; value at effective dose: unit not given here;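 as to IC50: anti-proliferation of cancer cells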
[7] = tested on: TNF-α; conditions: LPS-induced macrophages of wild type (C57BL/6) control group
[8] = tested on: Lung cancer cells; parameters: method as in PMID 29606130; value at effective dose: unit not given here
[9] = tested on: Liver cancer cells; parameters: method as in PMID 29606130; value at effective dose: unit not given here; conditions: for effective dose / percentage of control at effective dose / value at effective dose: 48 h
[10] = tested on: T-cells (Jurkat); parameters: method as in PMID 29606130; value at effective dose: unit not given here
[11] = tested on: TNF-α; conditions: LPS-induced macrophages of PPAR-α knockout female mice
[12] = tested on: people with T2DM; conditions: for Fasting Glucose, Post-dose, percentage of control (pre-dose) in parentheses / MDA, Post-dose / MDA, Post-dose, percentage of control (pre-dose) in parentheses / hs-CRP, Post-dose / hs-CRP, Post-dose, percentage of control (pre-dose) in parentheses / Fasting Glucose, Post-dose: serum; for Fasting Glucose, Post-dose, percentage of control (pre-dose) in parentheses / MDA, Post-dose / MDA, Post-dose, percentage of control (pre-dose) in parentheses / hs-CRP, Post-dose / hs-CRP, Post-dose, percentage of control (pre-dose) in parentheses / Fasting HbA1c, Post-dose / Fasting HbA1c, Post-dose, percentage of control (pre-dose) in parentheses / HOMA-IR, Post-dose / HOMA-IR, Post-dose, percentage of control (pre-dose) in parentheses: two capsules/d for 24-weeks; for Fasting Glucose, Post-dose: two capsules/d for 24-weeks (δ-tocotrienol 250 mg, vitamin D3 5000 IU, resveratrol 250 mg per capsule)

IC50 [3]: 80 µM
percentage of control at IC50 dose [3]: 55%
IC50 [6]: 80 µM
percentage of control at IC50 dose [6]: 55%
percentage of control at IC50 dose [8]: 28%
SMILES: Cc1cc2nc3c(=O)[nH]c(=O)nc-3n(C[C@H](O)[C@H](O)[C@H](O)CO)c2cc1C [(−) Riboflavin, Riboflavin]
effective dose [1]: 80 µM
percentage of control at effective dose [1]: 61%
value at effective dose [1]: 12.7 ± 1.5
effective dose [2]: 40 µM
percentage of control at effective dose [2]: 91%
effective dose [3]: 40 µM
percentage of control at effective dose [3]: 61%
value at effective dose [3]: 20.0 ± 2.0
effective dose [4]: 40 µM
percentage of control at effective dose [4]: 67%
value at effective dose [4]: 40.0 ± 2.0
effective dose [5]: 40 µM
percentage of control at effective dose [5]: 64%
value at effective dose [5]: 21.0 ± 1.0
effective dose [6]: 20 µM
percentage of control at effective dose [6]: 69%
value at effective dose [6]: 19.3 ± 3.1
effect on secretion of TNF-α [7]: inhibition
effective dose [8]: 10 µM
percentage of control at effective dose [8]: 23%
value at effective dose [8]: 7.7 ± 2.1
effective dose [9]: 80 µM
percentage of control at effective dose [9]: 91%
value at effective dose [9]: 74.0 ± 2.0
effective dose [10]: 20 µM
percentage of control at effective dose [10]: 32%
value at effective dose [10]: 142.0 ± 4.4
effect on secretion of TNF-α [11]: activation

SMILES: O=c1c(O)c(-c2ccc(O)c(O)c2)oc2cc(O)cc(O)c12 [Quercetin]
IC50 [1]: 10 µM
effective dose [1]: 20 µM
percentage of control at IC50 dose [1]: 39%
percentage of control at effective dose [1]: 27%
value at effective dose [1]: 5.7 ± 0.6
IC50 [2]: 10 µM
effective dose [2]: 40 µM
percentage of control at IC50 dose [2]: 54%
percentage of control at effective dose [2]: 21%
IC50 [3]: 10 µM
percentage of control at IC50 dose [3]: 48%
effective dose [3]: 20 µM
percentage of control at effective dose [3]: 17%
value at effective dose [3]: 7.3 ± 1.2
IC50 [4]: 40 µM
percentage of control at IC50 dose [4]: 45%
effective dose [4]: 40 µM
percentage of control at effective dose [4]: 26%
value at effective dose [4]: 11.7 ± 0.6
IC50 [5]: 10 µM
percentage of control at IC50 dose [5]: 51%
effective dose [5]: 40 µM
percentage of control at effective dose [5]: 38%
value at effective dose [5]: 21.3 ± 1.5
IC50 [6]: 10 µM
effective dose [6]: 10 µM
percentage of control at IC50 dose [6]: 29%
percentage of control at effective dose [6]: 29%
value at effective dose [6]: 8.0 ± 3.0
effect on secretion of TNF-α [7]: inhibition
IC50 [8]: 10 µM
effective dose [8]: 20 µM
percentage of control at IC50 dose [8]: 45%
percentage of control at effective dose [8]: 36%
value at effective dose [8]: 11.7 ± 1.5
IC50 [9]: 20 µM
percentage of control at IC50 dose [9]: 32%
effective dose [9]: 40 µM
percentage of control at effective dose [9]: 29%
value at effective dose [9]: 24.0 ± 2.0
IC50 [10]: 10 µM
effective dose [10]: 40 µM
percentage of control at IC50 dose [10]: 45%
percentage of control at effective dose [10]: 81%
value at effective dose [10]: 409.3 ± 6.4
effect on secretion of TNF-α [11]: activation

SMILES: C=C[C@H]1C[N@@]2CC[C@H]1C[C@H]2[C@H](O)c1ccnc2ccc(OC)cc12 [Quinine Sulphate]
effective dose [1]: 80 µM
percentage of control at effective dose [1]: 60%
value at effective dose [1]: 12.3 ± 2.3
IC50 [2]: 80 µM
effective dose [2]: 20 µM
percentage of control at IC50 dose [2]: 50%
percentage of control at effective dose [2]: 56%
IC50 [3]: 20 µM
percentage of control at IC50 dose [3]: 36%
effective dose [3]: 20 µM
percentage of control at effective dose [3]: 36%
value at effective dose [3]: 15.7 ± 2.1
effective dose [4]: 40 µM
percentage of control at effective dose [4]: 78%
value at effective dose [4]: 35.0 ± 3.0
IC50 [5]: 10 µM
percentage of control at IC50 dose [5]: 24%
effective dose [5]: 20 µM
percentage of control at effective dose [5]: 19%
effective dose [6]: 80 µM
percentage of control at effective dose [6]: 19%
effective dose [8]: 40 µM
percentage of control at effective dose [8]: 66%
IC50 [9]: 80 µM
percentage of control at IC50 dose [9]: 58%
effective dose [9]: 80 µM
percentage of control at effective dose [9]: 58%
value at effective dose [9]: 47.7 ± 2.1
IC50 [10]: 80 µM
effective dose [10]: 40 µM
percentage of control at IC50 dose [10]: 50%
percentage of control at effective dose [10]: 77%
value at effective dose [10]: 267.7 ± 29.7

SMILES: C=C(NC(=O)C(=C)NC(=O)c1csc(C2=N[C@@H]3c4csc(n4)[C@H]4NC(=O)c5csc(n5)[C@H]([C@](C)(O)[C@@H](C)O)NC(=O)[C@H]5CSC(=N5)/C(=C/C)NC(=O)[C@H]([C@@H](C)O)NC(=O)c5csc(n5)[C@]3(CC2)NC(=O)[C@H](C)NC(=O)C(=C)NC(=O)[C@H](C)NC(=O)[C@H]([C@@H](C)CC)N[C@@H]2C=Cc3c([C@H](C)O)cc(nc3[C@H]2O)C(=O)O[C@@H]4C)n1)C(N)=O [Thiostrepton]
IC50 [1]: 20 µM
effective dose [1]: 10 µM
percentage of control at IC50 dose [1]: 16%
percentage of control at effective dose [1]: 29%
value at effective dose [1]: 6.7 ± 0.6
effective dose [2]: 5 µM
percentage of control at IC50 dose [2]: 34%
percentage of control at effective dose [2]: 13%
IC50 [3]: 2.5 µM
percentage of control at IC50 dose [3]: 53%
effective dose [3]: 5 µM
percentage of control at effective dose [3]: 19%
value at effective dose [3]: 7.0 ± 1.7
IC50 [4]: 5 µM
percentage of control at IC50 dose [4]: 29%
effective dose [4]: 10 µM
percentage of control at effective dose [4]: 16%
value at effective dose [4]: 7.7 ± 0.6
IC50 [5]: 10 µM
percentage of control at IC50 dose [5]: 24%
effective dose [5]: 40 µM
percentage of control at effective dose [5]: 16%
value at effective dose [5]: 8.7 ± 1.5
effective dose [6]: 2.5 µM
percentage of control at IC50 dose [6]: 23%
percentage of control at effective dose [6]: 23%
value at effective dose [6]: 15.7 ± 4.0
IC50 [8]: 5 µM
effective dose [8]: 5 µM
percentage of control at IC50 dose [8]: 48%
percentage of control at effective dose [8]: 28%
value at effective dose [8]: 7.0 ± 2.0
IC50 [9]: 2.5 µM
percentage of control at IC50 dose [9]: 53%
effective dose [9]: 10 µM
percentage of control at effective dose [9]: 8%
value at effective dose [9]: 6.7 ± 2.2
effective dose [10]: 2.5 µM
percentage of control at IC50 dose [10]: 5%
percentage of control at effective dose [10]: 5%
value at effective dose [10]: 21.3 ± 2.1

SMILES: C=C1CC[C@H](O)C/C1=C/C=C1\CCC[C@]2(C)[C@@H]([C@H](C)CCCC(C)C)CC[C@@H]12 [Vitamin D3]
Fasting Glucose, Post-dose, percentage of control (pre-dose) in parentheses [12]: 95%
MDA, Post-dose [12]: 3.48 µmol/L
MDA, Post-dose, percentage of control (pre-dose) in parentheses [12]: 97%
hs-CRP, Post-dose [12]: 3.09 mg/L
hs-CRP, Post-dose, percentage of control (pre-dose) in parentheses [12]: 92%
Fasting Glucose, Post-dose [12]: 7.16 mmol/L
Fasting HbA1c, Post-dose [12]: 8.19%
Fasting HbA1c, Post-dose, percentage of control (pre-dose) in parentheses [12]: 93%
HOMA-IR, Post-dose [12]: 4.74
HOMA-IR, Post-dose, percentage of control (pre-dose) in parentheses [12]: 89%

SMILES: Oc1ccc(/C=C/c2cc(O)cc(O)c2)cc1 [trans-Resveratrol]
Fasting Glucose, Post-dose, percentage of control (pre-dose) in parentheses [12]: 94%
MDA, Post-dose [12]: 3.49 µmol/L
MDA, Post-dose, percentage of control (pre-dose) in parentheses [12]: 91%
hs-CRP, Post-dose [12]: 3.28 mg/L
hs-CRP, Post-dose, percentage of control (pre-dose) in parentheses [12]: 89%
Fasting Glucose, Post-dose [12]: 6.98 mmol/L
Fasting HbA1c, Post-dose [12]: 7.86%
Fasting HbA1c, Post-dose, percentage of control (pre-dose) in parentheses [12]: 92%
HOMA-IR, Post-dose [12]: 4.98
HOMA-IR, Post-dose, percentage of control (pre-dose) in parentheses [12]: 93%
